The assay has as its target Cyclin-dependent kinase 5/CDK5 activator 1 (Homo sapiens, UniProt Q00535). The experiment in a line: Inhibition of CDK5/P25 GST-fusion protein assessed as substrate histone H1 phosphorylation by scintillation counting. Type of assay: protein-complex assay.
Sequence of Cyclin-dependent kinase 5/CDK5 activator 1 (Q00535 whole entry, the tested form may be a part): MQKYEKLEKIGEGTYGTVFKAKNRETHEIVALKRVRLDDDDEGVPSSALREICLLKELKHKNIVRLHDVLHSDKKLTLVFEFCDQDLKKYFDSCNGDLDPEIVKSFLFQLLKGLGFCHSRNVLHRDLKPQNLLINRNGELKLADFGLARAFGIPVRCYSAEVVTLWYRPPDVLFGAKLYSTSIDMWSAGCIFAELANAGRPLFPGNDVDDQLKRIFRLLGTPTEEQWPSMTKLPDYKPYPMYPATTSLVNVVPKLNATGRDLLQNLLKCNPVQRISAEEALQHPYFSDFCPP
Sequence of Cyclin-dependent kinase 5/CDK5 activator 1 (Q15078 whole entry, further chain, the tested form may be a part): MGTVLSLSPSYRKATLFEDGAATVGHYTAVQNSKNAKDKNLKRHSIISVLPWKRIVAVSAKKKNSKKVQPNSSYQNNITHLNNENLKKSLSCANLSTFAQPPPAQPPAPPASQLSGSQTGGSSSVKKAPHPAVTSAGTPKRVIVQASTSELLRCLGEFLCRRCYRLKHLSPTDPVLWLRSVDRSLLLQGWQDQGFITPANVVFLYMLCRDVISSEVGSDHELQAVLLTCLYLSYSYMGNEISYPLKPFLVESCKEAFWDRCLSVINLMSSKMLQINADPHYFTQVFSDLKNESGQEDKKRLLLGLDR
The term IC50 denotes the concentration that gives 50% inhibition. Consider `COc1cc(NCc2ccccc2)c2ncn(C(C)C)c2c1`, for which the half-inhibitory concentration (IC50) is over 10 µM.

Take `CCC(CO)Oc1cc(NCc2ccccc2)c2ncn(C(C)C)c2c1` (configuration not stated): the IC50 came to 13 µM.

Turning to `CCOc1cc(NCc2ccccc2)c2ncn(C(C)C)c2c1`, the concentration for half-maximal inhibition (IC50) is over 100 µM.

Take `CCCOc1cc(NCc2ccccc2)c2ncn(C(C)C)c2c1`: the IC50 was over 100 µM.

Consider `CCCCOc1cc(NCc2ccccc2)c2ncn(C(C)C)c2c1`, for which the IC50 was over 100 µM.

Take `COCCOc1cc(NCc2ccccc2)c2ncn(C(C)C)c2c1`: the IC50 was over 100 µM.

Consider `CCC(CN(C)C)Oc1cc(NCc2ccccc2)c2ncn(C(C)C)c2c1` (configuration not stated), for which the IC50 is over 100 µM.

On to `CC(C)n1cnc2c(NCc3ccccc3)cc(OCC3CCN(C)CC3)cc21`, for which the IC50 is over 100 µM.

Consider `CCC(COC)Oc1cc(NCc2ccccc2)c2ncn(C(C)C)c2c1` (configuration not stated), for which the IC50 was over 10 µM.

Take `CC(C)n1cnc2c(NCc3ccccc3)cc(OCCO)cc21`: the half-inhibitory concentration (IC50) is over 100 µM.

As for `CCC(O)COc1cc(NCc2ccccc2)c2ncn(C(C)C)c2c1` (configuration not stated), the IC50 was over 100 µM.

Consider `CC(C)n1cnc2c(NCc3ccccc3)cc(OCC3CCNCC3)cc21`, for which the IC50 was over 100 µM.

(Values after ChEMBL document CHEMBL1641601, “Design, synthesis, and testing of an 6-O-linked series of benzimidazole based inhibitors of CDK5/p25” (Bioorg Med Chem, 2011).)
